# Key:
# Lp-PLA2 in human plasma = target: T1, Lp-PLA2 in human plasma (Homo sapiens, UniProt Q13093); test: (3b) Lp-PLA2 human plasma alternative Thio-PAF assay; format: biochemical; settings: (3b) alternative Thio-PAF assay, pooled human plasma; Examples of 266-412 were tested here; read-out: pIC50 in the Lp-PLA2 human plasma assay (converted)
# T1 construct: from tissue; host or cells: pooled human plasma
# T1 sequence (Q13093 22-441): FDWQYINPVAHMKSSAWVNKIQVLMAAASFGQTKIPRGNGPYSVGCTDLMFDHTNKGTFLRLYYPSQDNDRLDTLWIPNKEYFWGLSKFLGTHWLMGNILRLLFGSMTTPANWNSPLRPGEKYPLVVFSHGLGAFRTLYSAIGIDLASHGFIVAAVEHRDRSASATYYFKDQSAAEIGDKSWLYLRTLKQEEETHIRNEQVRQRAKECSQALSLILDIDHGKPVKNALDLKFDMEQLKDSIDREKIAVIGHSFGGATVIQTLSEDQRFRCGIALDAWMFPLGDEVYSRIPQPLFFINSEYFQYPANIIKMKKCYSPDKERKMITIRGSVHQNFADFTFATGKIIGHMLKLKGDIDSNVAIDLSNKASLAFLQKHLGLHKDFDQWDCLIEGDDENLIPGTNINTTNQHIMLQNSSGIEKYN
# Method in brief: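 Pooled human plasma was preincubated with compound for 15 min at RT. Substrate solution (2 mM 2-thio-PAF, 52 μM CPM, 2.5 mM NEM in 50 mM HEPES pH 7.4, 150 mM NaCl, 1 mM CHAPS; pre-addition concentrations) was added, and the reaction was quenched with 5% TFA after 3 min. Fluorescence was read at ex 380/em 485 nm and fitted to give pIC50.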
# [1] = target: T2, recombinant human Lp-PLA2 (Homo sapiens, UniProt Q13093); test: (1b) hrThioPAF assay, recombinant human Lp-PLA2; format: biochemical; settings: Examples 266-412 were tested here, one experiment or average of multiple experiments, read-out: rhLp-PLA2 (pIC50) (converted)
# T2 sequence (Q13093 22-441): T1 sequence (Q13093 22-441)
# Method in brief: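 Fluorogenic assay: 20 pM rhLp-PLA2 in 50 mM HEPES pH 7.4, 150 mM NaCl, 1 mM CHAPS with 1:3 serially diluted compounds; substrate mix of 40 μM 2-thio-PAF, 40 μM CPM, 400 μM NEM (pre-addition levels). 20 min at 25 °C in the dark; fluorescence ex 380/em 485 nm, pIC50 by curve fitting.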
smiles,measurement,setting,value
"N#Cc1cc(COc2cc3n(c(=O)n2)CC2CN(S(=O)(=O)C4CC4)CCN32)ccc1F (stereo not shown) [Example E296, 5-(((2-(Cyclopropylsulfonyl)-9-oxo-2,3,4,9,11,11a-hexahydro-1H-pyrazino[1′,2′:3,4]imidazo[1,2-c]pyrimidin-7-yl)oxy)methyl)-2-fluorobenzonitrile 2,2,2-trifluoroacetate]",IC50,Lp-PLA2 in human plasma,≤ 0.1 µM
same,IC50,[1],≤ 10 µM
"N#Cc1cc(COc2cc3n(c(=O)n2)CC2CN(C(=O)C4(N)CC4)CCN32)ccc1F (stereo not shown) [Example E297, 5-(((2-(1-Aminocyclopropanecarbonyl)-9-oxo-2,3,4,9,11,11a-hexahydro-1H-pyrazino[1′,2′:3,4]imidazo[1,2-c]pyrimidin-7-yl)oxy)methyl)-2-fluorobenzonitrile 2,2,2-trifluoroacetate]",IC50,Lp-PLA2 in human plasma,≤ 0.1 µM
same,IC50,[1],≤ 10 µM
"CC(C)(N)CC(=O)N1CCN2c3cc(OCc4ccc(F)c(C#N)c4)nc(=O)n3CC2C1 (stereo not shown) [Example E298, 5-(((2-(3-Amino-3-methylbutanoyl)-9-oxo-2,3,4,9,11,11a-hexahydro-1H-pyrazino[1′,2′:3,4]imidazo[1,2-c]pyrimidin-7-yl)oxy)methyl)-2-fluorobenzonitrile 2,2,2-trifluoroacetate]",IC50,Lp-PLA2 in human plasma,≤ 0.1 µM
same,IC50,[1],≤ 10 µM
"CC(=O)N1CCN2c3cc(OCc4cc(F)c(Oc5ccc(C)nc5)c(F)c4)nc(=O)n3CC2C1 (stereo not shown) [Example E299, 2-Acetyl-7-((3,5-difluoro-4-((6-methylpyridin-3-yl)oxy)benzyl)oxy)-3,4,11,11a-tetrahydro-1H-pyrazino[1′,2′:3,4]imidazo[1,2-c]pyrimidin-9(2H)-one]",IC50,Lp-PLA2 in human plasma,≤ 0.1 µM
same,IC50,[1],≤ 10 µM
"COC(=O)N1CCN2c3cc(OCc4ccc(F)c(F)c4)nc(=O)n3CC2C1 (stereo not shown) [Example E300, Methyl 7-((3,4-difluorobenzyl)oxy)-9-oxo-3,4,11,11a-tetrahydro-1H-pyrazino[1′,2′:3,4]imidazo[1,2-c]pyrimidine-2(9H)-carboxylate]",IC50,Lp-PLA2 in human plasma,≤ 0.1 µM
same,IC50,[1],≤ 10 µM
"CN(C)C(=O)N1CCN2c3cc(OCc4ccc(F)c(F)c4)nc(=O)n3CC2C1 (stereo not shown) [Example E301, 7-((3,4-Difluorobenzyl)oxy)-N,N-dimethyl-9-oxo-3,4,11,11a-tetrahydro-1H-pyrazino[1′,2′:3,4]imidazo[1,2-c]pyrimidine-2(9H)-carboxamide]",IC50,Lp-PLA2 in human plasma,≤ 0.1 µM
same,IC50,[1],≤ 10 µM
"N#Cc1cc(COc2cc3n(c(=O)n2)CC2CN(C(=O)C4CCC4)CCN32)ccc1F (stereo not shown) [Example E302, 5-(((2-(Cyclobutanecarbonyl)-9-oxo-2,3,4,9,11,11a-hexahydro-1H-pyrazino[1′,2′:3,4]imidazo[1,2-c]pyrimidin-7-yl)oxy)methyl)-2-fluorobenzonitrile]",IC50,Lp-PLA2 in human plasma,≤ 0.1 µM
same,IC50,[1],≤ 10 µM
"CC(C)C(=O)C(=O)N1CCN2c3cc(OCc4ccc(F)c(F)c4)nc(=O)n3CC2C1 (stereo not shown) [Example E303, 1-(7-((3,4-Difluorobenzyl)oxy)-9-oxo-3,4,11,11a-tetrahydro-1H-pyrazino[1′,2′:3,4]imidazo[1,2-c]pyrimidin-2(9H)-yl)-3-methylbutane-1,2-dione]",IC50,Lp-PLA2 in human plasma,≤ 0.1 µM
same,IC50,[1],≤ 10 µM
"CCCN1CCN2c3cc(OCc4ccc(F)c(F)c4)nc(=O)n3CC2C1 (stereo not shown) [Example E304, 7-((3,4-Difluorobenzyl)oxy)-2-propyl-3,4,11,11a-tetrahydro-1H-pyrazino[1′,2′:3,4]imidazo[1,2-c]pyrimidin-9(2H)-one]",IC50,Lp-PLA2 in human plasma,≤ 0.1 µM
same,IC50,[1],≤ 10 µM
"CC(C)CN1CCN2c3cc(OCc4ccc(F)c(F)c4)nc(=O)n3CC2C1 (stereo not shown) [Example E305, 7-((3,4-Difluorobenzyl)oxy)-2-isobutyl-3,4,11,11a-tetrahydro-1H-pyrazino[1′,2′:3,4]imidazo[1,2-c]pyrimidin-9(2H)-one]",IC50,Lp-PLA2 in human plasma,≤ 0.1 µM
same,IC50,[1],≤ 10 µM
"CCOC(=O)N1CCN2c3cc(OCc4ccc(F)c(F)c4)nc(=O)n3CC2C1 (stereo not shown) [Example E306, Ethyl 7-((3,4-difluorobenzyl)oxy)-9-oxo-3,4,11,11a-tetrahydro-1H-pyrazino[1′,2′:3,4]imidazo[1,2-c]pyrimidine-2(9H)-carboxylate]",IC50,Lp-PLA2 in human plasma,≤ 0.1 µM
same,IC50,[1],≤ 10 µM

# Reference: US11999746B2, “Compounds” (GlaxoSmithKline Intellectual Property Development Limited, priority 2014, dated 2024)
